These results are taken from PubChem BioAssay AID328 (DTP/NCI, 2004).

The assay concerns BDF1 mice, P388 leukemia ip, median survival T/C. The assay is described as follows: NCI In Vivo Anticancer Drug Screen. Data for tumor model P388 Leukemia (intraperitoneal) in B6D2F1 (BDF1) mice. The note with it: endpoint: median survival time, higher = longer survival. Put shortly:
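Compound-treated tumour-bearing mice were compared with vehicle-treated controls. Survival was recorded, and the value is the treated-group measurement divided by the control-group measurement (T/C).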

[1] abbreviates: dose: 100.0 mg/kg/injection, schedule: Q04DX003 (ip), vehicle: Klucel (hydroxypropylcellulose) (HPC).
Where [2] appears, read: dose: 200.0 mg/kg/injection, schedule: Q04DX003 (ip), vehicle: Klucel (hydroxypropylcellulose) (HPC).
The mark [3] stands for this setting: dose: 400.0 mg/kg/injection, schedule: Q04DX003 (ip), vehicle: Klucel (hydroxypropylcellulose) (HPC).
[4] abbreviates: dose: 12.5 mg/kg/injection, schedule: Q01DX009 (ip), vehicle: saline with Tween-80.
Setting [5] is: dose: 25.0 mg/kg/injection, schedule: Q01DX009 (ip), vehicle: saline with Tween-80.
The mark [6] stands for this setting: dose: 50.0 mg/kg/injection, schedule: Q01DX009 (ip), vehicle: saline with Tween-80.
The mark [7] stands for this setting: dose: 200.0 mg/kg/injection, schedule: Q04DX003 (ip), vehicle: saline with Tween-80.
Where [8] appears, read: dose: 400.0 mg/kg/injection, schedule: Q04DX003 (ip), vehicle: saline with Tween-80.
Setting [9] is: dose: 100.0 mg/kg/injection, schedule: Q01DX009 (ip), vehicle: saline with Tween-80.
Where [10] appears, read: dose: 200.0 mg/kg/injection, schedule: Q01DX009 (ip), vehicle: saline with Tween-80.
Where [11] appears, read: dose: 100.0 mg/kg/injection, schedule: Q04DX003 (ip), vehicle: saline.
Where [12] appears, read: dose: 200.0 mg/kg/injection, schedule: Q04DX003 (ip), vehicle: saline.
The mark [13] stands for this setting: dose: 400.0 mg/kg/injection, schedule: Q04DX003 (ip), vehicle: saline.
Where [14] appears, read: dose: 100.0 mg/kg/injection, schedule: Q01DX009 (ip), vehicle: saline.
The mark [15] stands for this setting: dose: 200.0 mg/kg/injection, schedule: Q01DX009 (ip), vehicle: saline.
[16] abbreviates: dose: 400.0 mg/kg/injection, schedule: Q01DX009 (ip), vehicle: saline.
Where [17] appears, read: dose: 200.0 mg/kg/injection, schedule: Q01DX009 (ip), vehicle: Klucel (hydroxypropylcellulose) (HPC).

Several values for one entry are separate records, joined by “and”; a condition that tells them apart may be missing. Equal values may be shown once. Toxic doses and inconclusive results are not listed.

Consider `O=C(NNC(=O)c1ccc([N+](=O)[O-])cc1)c1ccccc1`, for which the T/C (dose: 3.0 mg/kg/injection, schedule: Q01DX009 (ip), vehicle: Klucel (hydroxypropylcellulose) (HPC)) was 95 % of control; the T/C (dose: 6.0 mg/kg/injection, schedule: Q01DX009 (ip), vehicle: Klucel (hydroxypropylcellulose) (HPC)) was 104 % of control; the T/C (dose: 12.0 mg/kg/injection, schedule: Q01DX009 (ip), vehicle: Klucel (hydroxypropylcellulose) (HPC)) was 100 % of control; the T/C (dose: 50.0 mg/kg/injection, schedule: Q01DX009 (ip), vehicle: Klucel (hydroxypropylcellulose) (HPC)) was 92 % of control; the T/C under setting [1] was 104 % of control; the T/C under setting [2] is 87 % of control. For the same compound, the T/C under setting [3] is 108 % of control.
`O=C1c2ccccc2C(=O)c2c(Cl)cccc21`: the T/C under setting [4] is 113 % of control; the T/C under setting [5] was 100 % of control; the T/C under setting [6] is 100 % of control; the T/C (dose: 100.0 mg/kg/injection, schedule: Q04DX003 (ip), vehicle: saline with Tween-80) was 95 % of control; the T/C under setting [7] is 100 % of control; the T/C under setting [8] was 95 % of control.
Take `COc1ccc(/C=C/C(=O)c2ccc(OC)cc2)cc1`: the T/C is, setting by setting: under setting [1], 100 % of control; under setting [2], 104 % of control; under setting [3], 95 % of control.
As for `OCC1=CCCCC1`, the T/C reads like this: under setting [6], 106 % of control; under setting [9], 98 % of control; under setting [10], 104 % of control.
In the case of `CNC(=S)NN`, the T/C under setting [11] was 100 % of control; the T/C (dose: 200.0 mg/kg/injection, schedule: Q01DX001 (ip), vehicle: saline) was 100 % of control; the T/C under setting [12] was 90 % of control; the T/C under setting [13] is 100 % of control.
Turning to `CC(=O)Nc1ccc(OC(=O)Nc2ccc(C)c(NC(=O)Oc3ccc(NC(C)=O)cc3)c2)cc1`, the T/C was 96 % of control (dose: 50.0 mg/kg/injection, schedule: Q01DX005 (ip), vehicle: saline with Tween-80); 102 % of control (dose: 100.0 mg/kg/injection, schedule: Q01DX005 (ip), vehicle: saline with Tween-80); 119 % of control (dose: 200.0 mg/kg/injection, schedule: Q01DX005 (ip), vehicle: saline with Tween-80).
`O=C(Nc1ccc(NC2=NCCN2)cc1)c1ccc(C(=O)Nc2ccc(NC3=NCCN3)cc2)cc1`: the T/C is, setting by setting: (dose: 2.0 mg/kg/injection, schedule: Q01DX010 (ip), vehicle: saline) 165 % of control and 180 % of control; (dose: 4.0 mg/kg/injection, schedule: Q01DX010 (ip), vehicle: saline) 260 % of control and 205 % of control; (dose: 8.0 mg/kg/injection, schedule: Q01DX010 (ip), vehicle: saline) 260 % of control and 285 % of control; (dose: 16.0 mg/kg/injection, schedule: Q01DX010 (ip), vehicle: saline) 105 % of control and 110 % of control.
`c1ccc(-c2c[n+]3cc4ccccc4cc3cn2)cc1`: the T/C was 95 % of control under setting [14]; 100 % of control under setting [11]; 91 % of control under setting [15]; 113 % of control under setting [12]; 91 % of control under setting [16]; 95 % of control under setting [13].
Take `C=C(C)C1CCC2(C=O)CCC3(C)C(CCC4C5(C)CCC(O)C(C)(C)C5CCC43C)C12` (stereo unspecified): the T/C (dose: 18.75 mg/kg/injection, schedule: Q01DX009 (ip), vehicle: Klucel (hydroxypropylcellulose) (HPC)) was 91 % of control; the T/C (dose: 37.5 mg/kg/injection, schedule: Q01DX009 (ip), vehicle: Klucel (hydroxypropylcellulose) (HPC)) is 88 % of control; the T/C (dose: 75.0 mg/kg/injection, schedule: Q01DX009 (ip), vehicle: Klucel (hydroxypropylcellulose) (HPC)) is 95 % of control.
Regarding `COC1CCC(OC2C(C)C(O)(C(C)C(=O)O)OC(CC3CC(OC)C(C)C4(O3)OC(C)(C3CCC(C5CCC(C6OC(C)(O)C(C)C(OC)C6C)O5)O3)C(OC)C4C)C2(C)OC)OC1C` (stereo unspecified), the T/C is 94 % of control (dose: 0.62 mg/kg/injection, schedule: Q01DX009 (ip), vehicle: saline) and 96 % of control (dose: 1.25 mg/kg/injection, schedule: Q01DX009 (ip), vehicle: saline).
For `NCC1OC(OC2C(CO)OC(OC3C(O)C(N)CC(N)C3OC3OC(CO)C(O)C(O)C3N)C2O)C(N)C(O)C1O` (stereo unspecified), the T/C runs as follows: under setting [14], 104 % of control; under setting [15], 106 % of control; under setting [16], 97 % of control.
Take `CC(O)CC1CCCCN1O` (stereo unspecified): the T/C reads like this: (dose: 100.0 mg/kg/injection, schedule: Q04DX002 (ip), vehicle: saline with Tween-80) 110 % of control; (dose: 200.0 mg/kg/injection, schedule: Q04DX002 (ip), vehicle: saline with Tween-80) 101 % of control; (dose: 400.0 mg/kg/injection, schedule: Q04DX002 (ip), vehicle: saline with Tween-80) 100 % of control.
Consider `c1cc2ccsc2cn1`, for which the T/C is, setting by setting: under setting [4], 103 % of control; under setting [5], 92 % of control; (dose: 25.0 mg/kg/injection, schedule: Q04DX003 (ip), vehicle: saline with Tween-80) 95 % of control; under setting [6], 92 % of control; (dose: 50.0 mg/kg/injection, schedule: Q04DX003 (ip), vehicle: saline with Tween-80) 91 % of control.
`C=CC(C)(O)CCC1C(=C)CCC2C(C)(C)CCCC12C` (stereo unspecified): the T/C is 90 % of control (dose: 100.0 mg/kg/injection, schedule: Q01DX009 (ip), vehicle: Klucel (hydroxypropylcellulose) (HPC)); 95 % of control under setting [1]; 86 % of control under setting [17]; 100 % of control under setting [2]; 95 % of control (dose: 400.0 mg/kg/injection, schedule: Q01DX009 (ip), vehicle: Klucel (hydroxypropylcellulose) (HPC)); 95 % of control under setting [3].
`Nc1nc(N)c(-c2ccc(Cl)c(Cl)c2)c(COc2cccc(CNC(=O)c3cccc(S(=O)(=O)F)c3)c2)n1`: the T/C (dose: 132.0 mg/kg/injection, schedule: Q04DX003 (ip), vehicle: Klucel (hydroxypropylcellulose) (HPC)) was 109 % of control; the T/C under setting [17] is 150 % of control; the T/C under setting [2] is 119 % of control; the T/C (dose: 300.0 mg/kg/injection, schedule: Q01DX009 (ip), vehicle: Klucel (hydroxypropylcellulose) (HPC)) was 155 % of control.
For `Cc1ncc([N+](=O)[O-])n1CCn1nnc2c1CCCC2`, the T/C is 210 % of control under setting [7] and 114 % of control under setting [8].
For `Cc1c2c(nn1-c1ccccn1)C(=O)C=C(Nc1ccccc1)C2=O`, the T/C (dose: 8.8 mg/kg/injection, schedule: Q01DX009 (ip), vehicle: carboxymethylcellulose (CMC)) is 91 % of control.
As for `CC(=O)N(CC1CNc2nc(N)[nH]c(=O)c2N1C(=O)CCCCCCC(=O)N1c2c(nc(N)[nH]c2=O)NCC1CN(C(C)=O)c1ccc(C(=O)NC(CCC(=O)O)C(=O)O)cc1)c1ccc(C(=O)NC(CCC(=O)O)C(=O)O)cc1` (stereo unspecified), the T/C is, setting by setting: (dose: 50.0 mg/kg/injection, schedule: Q04DX003 (ip), vehicle: sodium bicarbonate) 103 % of control; (dose: 100.0 mg/kg/injection, schedule: Q04DX003 (ip), vehicle: sodium bicarbonate) 91 % of control; (dose: 200.0 mg/kg/injection, schedule: Q04DX003 (ip), vehicle: sodium bicarbonate) 112 % of control.
Turning to `CC1(O)c2ccccc2-c2nc3ccccc3nc21` (stereo unspecified), the T/C by setting is: under setting [9], 104 % of control; under setting [10], 100 % of control; (dose: 400.0 mg/kg/injection, schedule: Q01DX009 (ip), vehicle: saline with Tween-80) 118 % of control.
As to `CN1CCN=C1c1ccc(NC(=O)c2ccc(C(=O)Nc3ccc(C4=NCCN4C)cc3)c(N)c2)cc1`, the T/C runs as follows: (dose: 0.5 mg/kg/injection, schedule: Q01DX009 (ip), vehicle: saline with Tween-80) 150 % of control; (dose: 1.0 mg/kg/injection, schedule: Q01DX009 (ip), vehicle: saline with Tween-80) 154 % of control; (dose: 2.0 mg/kg/injection, schedule: Q01DX009 (ip), vehicle: saline with Tween-80) 181 % of control; (dose: 2.0 mg/kg/injection, schedule: Q01DX009 (ip), vehicle: saline) 154 % of control; (dose: 3.0 mg/kg/injection, schedule: Q01DX009 (ip), vehicle: saline) 166 % of control.
